Biological target: 5HT2A receptor (Homo sapiens, UniProt P28223)
Test: Ca2+i mobilization by autosampling flow cytometry, single cell threshold analysis, Indo-1-loaded cells
Format: cell-based
Conditions: 1 uM serotonin; percent of cells with Ca2+i at least 2 SD above mean of buffer control
Description: Left panel: distribution of Ca^2+i levels measured by intensity ratio, and determination of threshold level as shown by arrow.
A rotated histogram plot of such a response, and of the basal population, is shown in the left panel of FIG. 22, where the Ca^2+i level is shown on the x-axis and the number of cells attaining each Ca^2+i level is on the y-axis. […] The threshold is set by calculating the mean of the Ca^2+i level in the buffer control sample and calculating one (1) or more standard deviations above the mean. The choice to use one or more standard deviations is based on minimizing the error between buffer control samples and fully activated positive control samples. […] A threshold level at two standard deviations above the mean Ca^2+i level is shown by the arrow. Because the single cell flow cytometry as provided herein can analyze samples rapidly, about 100 to 200 cells, or more, can be analyzed in a short period. […] Data analysis is implemented in an automated software algorithm that automatically calculates Chi Square values along with the response frequency for each sample.

5HT2A receptor, sequence (P28223 whole entry): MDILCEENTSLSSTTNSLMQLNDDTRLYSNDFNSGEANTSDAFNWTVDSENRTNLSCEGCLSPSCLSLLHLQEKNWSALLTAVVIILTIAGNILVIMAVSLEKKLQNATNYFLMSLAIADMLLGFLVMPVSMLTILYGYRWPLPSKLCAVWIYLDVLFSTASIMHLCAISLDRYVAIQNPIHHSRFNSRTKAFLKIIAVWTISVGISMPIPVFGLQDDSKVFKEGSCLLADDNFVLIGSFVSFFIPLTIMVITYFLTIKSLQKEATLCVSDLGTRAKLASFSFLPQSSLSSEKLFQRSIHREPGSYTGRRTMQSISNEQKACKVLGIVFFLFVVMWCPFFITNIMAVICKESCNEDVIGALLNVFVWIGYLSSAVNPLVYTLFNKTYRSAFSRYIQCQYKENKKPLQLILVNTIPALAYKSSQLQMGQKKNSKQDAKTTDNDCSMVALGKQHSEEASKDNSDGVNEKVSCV

signal to baseline ratio (stimulated to unstimulated response frequency): over 50
Structure (SMILES): NCCc1c[nH]c2ccc(O)cc12 [serotonin]
